{
  "source": "patent US9951021B2",
  "about": "“Compounds for inhibiting c-Myc/Max/DNA complex formation” (NATIONAL CANCER CENTER, priority 2016, dated 2018)",
  "data": [
    {"target": "T1, recombinant c-Myc/Max (Homo sapiens, UniProt P01106+P61244)", "T1 construct": "made in house", "T1 sequence (P01106 whole entry)": "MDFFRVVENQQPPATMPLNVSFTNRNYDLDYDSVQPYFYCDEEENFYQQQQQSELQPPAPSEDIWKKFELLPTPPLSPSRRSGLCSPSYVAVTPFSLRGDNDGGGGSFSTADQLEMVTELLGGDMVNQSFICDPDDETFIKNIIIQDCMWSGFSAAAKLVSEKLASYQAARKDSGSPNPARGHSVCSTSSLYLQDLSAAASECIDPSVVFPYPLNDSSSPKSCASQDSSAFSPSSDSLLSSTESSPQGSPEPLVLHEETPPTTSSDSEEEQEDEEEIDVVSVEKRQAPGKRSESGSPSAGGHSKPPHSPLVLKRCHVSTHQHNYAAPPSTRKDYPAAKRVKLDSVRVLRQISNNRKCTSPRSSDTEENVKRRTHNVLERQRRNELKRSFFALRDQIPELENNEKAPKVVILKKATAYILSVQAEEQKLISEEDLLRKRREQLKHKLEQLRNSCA", "T1 sequence (P61244 whole entry)": "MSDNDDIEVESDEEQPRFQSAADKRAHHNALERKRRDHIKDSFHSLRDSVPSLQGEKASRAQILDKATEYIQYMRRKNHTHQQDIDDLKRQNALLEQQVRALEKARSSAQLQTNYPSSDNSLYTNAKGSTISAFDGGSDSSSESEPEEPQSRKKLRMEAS", "assay": "Electrophoretic mobility shift assay (EMSA): inhibitory activity on DNA binding of recombinant c-Myc/Max", "conditions": "read-out: protein assay IC50", "description": "1) Preparation of Recombinant c-Myc and Max Proteins\nRecombinant proteins were prepared as described in the following references: K. C. Jung et al., Fatty Acids, Inhibitors for the DNA Binding of c-Myc/Max Dimer, Suppress Proliferation and Induce Apoptosis of Differentiated HL-60 Human Leukemia Cell, Leukemia, 2006, 20(1), 122-7 or Kyung-Chae Jeong et al., Small-Molecule Inhibitors of c-Myc Transcriptional Factor Suppress Proliferation and Induce Apoptosis of Promyelocytic Leukemia Cell via Cell Cycle Arrest, Mol. BioSyst., 2010, 6, 1503-1509.\n2) Electrophoretic Mobility Shift Assay (EMSA)\nThe inhibitory activity of each candidate compound on DNA binding of recombinant c-Myc/Max was measured using an electrophoretic mobility shift assay (EMSA). The ratio of protein-DNA complexes in each sample was evaluated by measuring band intensity. The oligonucleotides (E-box) corresponding to the consensus binding site of Myc/Max were dimerized through an annealing process. The protein mixture was incubated at room temperature for 5 minutes, and a DMSO solution containing each candidate compound was added thereto. The mixture was further incubated for 5 minutes, and the biotinylated DNA was added. To achieve a state of equilibrium, the final mixture was incubated at room temperature for 10 minutes. The protein-DNA complexes were separated from unbound free DNA by pre-electrophoresis using 8% polyacrylamide gel and 1×TBE buffer. After pre-electrophoresis, electrophoresis was performed at 120 V for 1 hour in 1×TBE buffer. Each band was visualized using HRP-conjugated streptavidin and an ECL solution, and band intensity was measured using image analysis software.", "units": {"IC50": "µM"}, "values": [
      {"smiles": "CC(=O)c1c([S+](C)[O-])n(S(=O)(=O)c2ccc(C(C)(C)C)cc2)c2c(Br)ccc(Cl)c2c1=O", "note": "(stereo not shown) [Compound 42, 3-acetyl-8-bromo-1-((4-(tert-butyl)phenyl)sulfonyl)-5-chloro-2-(methylsulfinyl)quinolin-4(1H)-one]", "IC50": "< 1"},
      {"smiles": "CC(=O)c1c(SCc2cc(Cl)ccc2Cl)[nH]c2c(Br)ccc(Cl)c2c1=O", "note": "[Compound 43, 3-acetyl-8-bromo-5-chloro-2-((2,5-dichlorobenzyl)thio)quinolin-4(1H)-one]", "IC50": "< 1"},
      {"smiles": "CC(=O)c1c([S+]([O-])Cc2cc(Cl)ccc2Cl)[nH]c2c(Br)ccc(Cl)c2c1=O", "note": "(stereo not shown) [Compound 44, 3-acetyl-8-bromo-5-chloro-2-((2,5-dichlorobenzyl)sulfinyl)quinolin-4(1H)-one]", "IC50": "< 1"},
      {"smiles": "CC(=O)c1c(SCc2cc(F)cc(F)c2)[nH]c2c(Br)ccc(Cl)c2c1=O", "note": "[Compound 45, 3-acetyl-8-bromo-5-chloro-2-((3,5-difluorobenzyl)thio)quinolin-4(1H)-one]", "IC50": "< 1"},
      {"smiles": "CC(=O)c1c([S+]([O-])Cc2cc(F)cc(F)c2)[nH]c2c(Br)ccc(Cl)c2c1=O", "note": "(stereo not shown) [Compound 46, 3-acetyl-8-bromo-5-chloro-2-((3,5-difluorobenzyl)sulfinyl)quinolin-4(1H)-one]", "IC50": "< 1"},
      {"smiles": "CC(=O)c1c(SCc2cccc(I)c2)[nH]c2c(Br)ccc(Cl)c2c1=O", "note": "[Compound 47, 3-acetyl-8-bromo-5-chloro-2-((3-iodobenzyl)thio)quinolin-4(1H)-one]", "IC50": "< 1"},
      {"smiles": "CC(=O)c1c([S+]([O-])Cc2cccc(I)c2)[nH]c2c(Br)ccc(Cl)c2c1=O", "note": "(stereo not shown) [Compound 48, 3-acetyl-8-bromo-5-chloro-2-((3-iodobenzyl)sulfinyl)quinolin-4(1H)-one]", "IC50": "< 1"},
      {"smiles": "CC(=O)c1c(SCc2cccc(F)c2)[nH]c2c(Br)ccc(Cl)c2c1=O", "note": "[Compound 49, 3-acetyl-8-bromo-5-chloro-2-((3-fluorobenzyl)thio)quinolin-4(1H)-one]", "IC50": "< 1"},
      {"smiles": "CC(=O)c1c([S+]([O-])Cc2cccc(F)c2)[nH]c2c(Br)ccc(Cl)c2c1=O", "note": "(stereo not shown) [Compound 50, 3-acetyl-8-bromo-5-chloro-2-((3-fluorobenzyl)sulfinyl)quinolin-4(1H)-one]", "IC50": "< 1"},
      {"smiles": "CC(=O)c1c([S+]([O-])Cc2cc(C)on2)[nH]c2c(Br)ccc(Cl)c2c1=O", "note": "(stereo not shown) [Compound 51, 3-acetyl-8-bromo-5-chloro-2-(((5-methylisoxazol-3-yl)methyl)sulfinyl)quinolin-4(1H)-one]", "IC50": "< 1"},
      {"smiles": "CC(=O)c1c(SCc2ccccc2)nc2c(Br)ccc(Cl)c2c1O", "note": "[Compound 52, 1-(2-(benzylthio)-8-bromo-5-chloro-4-hydroxyquinolin-3-yl)ethan-1-one]", "IC50": "< 1"},
      {"smiles": "CC(=O)c1c([S+]([O-])Cc2ccccc2)nc2c(Br)ccc(Cl)c2c1O", "note": "(stereo not shown) [Compound 53, 1-(2-(benzylsulfinyl)-8-bromo-5-chloro-4-hydroxyquinolin-3-yl)ethan-1-one]", "IC50": "< 1"},
      {"smiles": "COc1cccc(C[S+]([O-])c2[nH]c3c(Br)ccc(Cl)c3c(=O)c2C(C)=O)c1", "note": "(stereo not shown) [Compound 55, 3-acetyl-8-bromo-5-chloro-2-((3-methoxybenzyl)sulfinyl)quinolin-4(1H)-one]", "IC50": "< 1"},
      {"smiles": "CC(=O)c1c([S+]([O-])Cc2ccc(SC(F)(F)F)cc2)[nH]c2c(Br)ccc(Cl)c2c1=O", "note": "(stereo not shown) [Compound 56, 3-acetyl-8-bromo-5-chloro-2-((4-((trifluoromethyl)thio)benzyl)sulfinyl)quinolin-4(1H)-one]", "IC50": "< 1"},
      {"smiles": "CC(=O)c1c([S+]([O-])Cc2ccc([N+](=O)[O-])cc2)[nH]c2c(Cl)ccc(Cl)c2c1=O", "note": "(stereo not shown) [Compound 57, 3-acetyl-5,8-dichloro-2-((4-nitrobenzyl)sulfinyl)quinolin-4(1H)-one]", "IC50": "< 1"},
      {"smiles": "CC(=O)c1c([S+]([O-])Cc2ccccc2C#N)[nH]c2c(Br)ccc(Cl)c2c1=O", "note": "(stereo not shown) [Compound 58, 2-(((3-acetyl-8-bromo-5-chloro-4-oxo-1,4-dihydroquinolin-2-yl)sulfinyl)methyl)benzonitrile]", "IC50": "< 1"}
    ]}
  ]
}
